In data set [1] the target is T1, Recombinant human PI3Kγ (full length human PI3K p110γ) (Homo sapiens, UniProt P48736).
T1 construct: full length human PI3K p110γ fused with a His6-tag at the C-terminus; His6 (C); purchased ALEXIS BIOCHEMICALS #201-055-C010; host or cells: S. frugiperda 9 insect cells
As to the kind of experiment: Kinase assay of PI3Kγ (solid-phase lipid kinase assay). Format: biochemical.

Data set [2] addresses PI3Kβ (heterocomplex of p110β and GST-p85α) (UniProt Q9Z1L0). The data set is described as follows: Isozyme selectivity test: kinase assay of PI3Kβ. Format: biochemical. The note with it: activity class of IC50, read-out: In vitro PI3K-β inhibitory activity. As to the method:
[Isozyme Selectivity Test in PI3K]
{Determination of IC50 Values of Compounds in Kinase Assay of PI3Kβ}
Recombinant baculovirus of PI3Kβ p110β and GST-p85α were obtained from Dr. Katada (University of Tokyo). Recombinant PI3K heterocomplex of p110β and GST-p85α were co-expressed in insect cells according to manufacture's instruction (Pharmingen, San Diego, Calif.), and purified with glutathione affinity column. Kinase assay of PI3Kβ was prepared in a similar manner as described in the part of [Determination of IC50 values of compounds in kinase assay of PI3Kγ].

[3] abbreviates: activity class of IC50, read-out: In vitro PI3K-γ inhibitory activity.
Setting [4] is: in vitro PI3K-γ inhibitory activity, class symbols A-D, read-out: in vitro PI3K-gamma.

In patent publication US7511041B2, “Fused azole-pyrimidine derivatives” (Bayer Pharmaceuticals Corporation, priority 2002, dated 2009) one finds IC50 and melting point data, which are given here for 17 molecules.

Structures can show the parent of a compound that is named as a salt. Where two headings read alike, the source gives them in different places.

T1 sequence (P48736 whole entry, the tested form may be a part): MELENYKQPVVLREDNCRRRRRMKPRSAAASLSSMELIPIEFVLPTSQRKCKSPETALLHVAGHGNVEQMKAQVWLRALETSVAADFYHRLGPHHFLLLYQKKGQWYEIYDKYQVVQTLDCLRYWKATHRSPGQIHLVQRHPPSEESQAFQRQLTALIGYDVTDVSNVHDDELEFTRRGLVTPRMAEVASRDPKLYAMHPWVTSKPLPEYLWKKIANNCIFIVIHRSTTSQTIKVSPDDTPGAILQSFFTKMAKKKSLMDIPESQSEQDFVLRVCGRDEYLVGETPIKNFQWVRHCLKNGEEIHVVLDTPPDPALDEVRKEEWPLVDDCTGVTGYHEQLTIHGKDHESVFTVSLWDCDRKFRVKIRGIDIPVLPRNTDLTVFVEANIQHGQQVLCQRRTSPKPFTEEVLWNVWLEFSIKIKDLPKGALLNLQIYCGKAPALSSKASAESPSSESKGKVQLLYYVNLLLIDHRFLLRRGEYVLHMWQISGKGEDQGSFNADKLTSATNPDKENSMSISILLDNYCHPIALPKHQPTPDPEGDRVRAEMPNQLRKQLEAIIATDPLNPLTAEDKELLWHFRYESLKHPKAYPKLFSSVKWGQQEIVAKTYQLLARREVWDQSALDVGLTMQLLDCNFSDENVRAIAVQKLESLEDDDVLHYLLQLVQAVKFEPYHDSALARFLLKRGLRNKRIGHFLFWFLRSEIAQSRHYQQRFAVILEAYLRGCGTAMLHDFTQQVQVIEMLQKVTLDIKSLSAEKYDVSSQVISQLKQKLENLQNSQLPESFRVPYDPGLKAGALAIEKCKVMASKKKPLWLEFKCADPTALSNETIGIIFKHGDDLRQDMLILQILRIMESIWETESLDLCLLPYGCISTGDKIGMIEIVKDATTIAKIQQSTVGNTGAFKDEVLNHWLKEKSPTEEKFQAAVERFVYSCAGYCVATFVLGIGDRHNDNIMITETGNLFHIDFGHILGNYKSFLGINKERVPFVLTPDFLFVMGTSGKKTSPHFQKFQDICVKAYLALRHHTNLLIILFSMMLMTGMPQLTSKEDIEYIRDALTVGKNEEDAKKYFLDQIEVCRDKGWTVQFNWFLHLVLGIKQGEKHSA

Broadly, the melting point is the temperature, or range, at which the solid turns liquid. Turning to `COc1cc2c(cc1OC)C1=NCCN1C(/C=C(\O)c1cccnc1)=N2` [Example 1-1, (Z)-2-(8,9-Dimethoxy-2,3-dihydroimidazo[1,2-c]quinazolin-5-yl)-1-(3-pyridinyl)ethenol], the melting point turned out to be 275 °C. Moreover, in data set [1] (setting [3]), the IC50 was below 100 nM. Also, the IC50 in data set [2] lay within 500 to 2000 nM.
As for `COc1c(O)ccc2c1N=C(/C=C(\O)c1cccnc1)N1CCN=C21` [Example 1-4, 5-(2-Hydroxy-2-pyridin-3-ylvinyl)-7-methoxy-2,3-dihydroimidazo[1,2-c]quinazolin-8-ol hydrochloride], the IC50 in data set [1] (setting [3]) is below 100 nM; in data set [2], 500 to 2000 nM.
In turn, `COC(=O)CCCOc1ccc2c(c1OC)N=C(/C=C(\O)c1cccnc1)N1CCN=C21` [Example 1-5, Methyl 4-{[5-(2-hydroxy-2-pyridin-3-ylvinyl)-7-methoxy-2,3-dihydroimidazo[1,2-c]quinazolin-8-yl]oxy}butanoate] came in with a melting point of 199 to 200 °C. Besides, the IC50 in data set [1] (setting [3]) was below 100 nM. In data set [2], the IC50 lay within 500 to 2000 nM.
For the molecule `COc1c(OCCCC(=O)O)ccc2c1N=C(/C=C(\O)c1cccnc1)N1CCN=C21` [Example 1-6, 4-{[5-(2-Hydroxy-2-pyridin-3-ylvinyl)-7-methoxy-2,3-dihydroimidazo[1,2-c]quinazolin-8-yl]oxy}butanoic acid], the IC50 in data set [1] (setting [3]) was below 100 nM; in data set [2], 100 to 500 nM.
As for `COc1c(OCCCC(=O)N2CCOCC2)ccc2c1N=C(/C=C(\O)c1cccnc1)N1CCN=C21` [Example 1-8, 2-[7-Methoxy-8-(4-morpholin-4-yl-4-oxobutoxy)-2,3-dihydroimidazo[1,2-c]quinazolin-5-yl]-1-pyridin-3-ylethylenol], the melting point fell in the range of 234 to 235 °C. Also, in data set [1] (setting [3]), the IC50 was below 100 nM. In addition, the IC50 in data set [2] was 100 to 500 nM.
On the same counts, the results for `O=C(NC1=Nc2ccccc2C2=NCCN12)c1cccnc1` [Example 2-1, N-(2,3-Dihydroimidazo[1,2-c]quinazolin-5-yl)nicotinamide] are 238 to 239 °C (dec.), below 100 nM and 100 to 500 nM.
Take `CC(=O)Nc1ccc(C(=O)NC2=Nc3cc(N4CCOCC4)ccc3C3=NCCN23)cn1` [Example 2-3, 6-(Acetamido)-N-[8-(morpholin-4-yl)-2,3-dihydroimidazo[1,2-c]quinazolin-5-yl]nicotinamide]: the IC50 in data set [1] (setting [3]) is below 100 nM; in data set [2], 500 to 2000 nM.
In the case of `CC(=O)Nc1ccc(C(=O)NC2=Nc3cc(N4CCOCC4)ccc3C3=NCCN23)cn1` [Example 2-4, 6-(Acetamido)-N-[8-(morpholin-4-yl)-2,3-dihydroimidazo[1,2-c]quinazolin-5-yl]nicotinamide hydrochloride], the IC50 in data set [2] (hydrochloride) was 100 to 500 nM.
Molecule `O=C(NC1=Nc2cc(O)ccc2C2=NCCN12)c1cccnc1` [Example 2-5, N-(8-Hydroxy-2,3-dihydroimidazo[1,2-c]quinazolin-5-yl)nicotinamide] gave a melting point of 289 °C. The IC50 in data set [1] (setting [3]) was in the range of 100 to 500 nM. Further, the IC50 in data set [2] lay in the range of 500 to 2000 nM.
On the same counts, the results for `O=C(NC1=Nc2cc(OCCn3cccc3)ccc2C2=NCCN12)c1cccnc1` [Example 2-6, N-{8-[2-(1-pyrrolyl)ethoxy]-2,3-dihydroimidazo[1,2-c]quinazolin-5-yl}nicotinamide] are 209 °C, 100 to 500 nM and 100 to 500 nM.
Turning to `C[C@H]1CN2C(NC(=O)c3cccnc3)=Nc3ccccc3C2=N1.Cl` [Example 2-363], the melting point is 204 °C (dec.). Further, the IC50 in data set [1] (setting [4]) is above 2000 nM.
`CCC(C)[C@H]1CN2C(NC(=O)c3cccnc3)=Nc3ccccc3C2=N1.Cl` (stereo partly drawn) [Example 2-364] displayed a melting point of 230 to 240 °C. Besides, the IC50 in data set [1] (setting [4]) was above 2000 nM.
Consider `Cl.NC(=O)C1CN2C(NC(=O)c3cccnc3)=Nc3ccccc3C2=N1` (stereo not drawn) [Example 2-365], for which the melting point is 274 °C (dec.). Moreover, in data set [1] (setting [4]), the IC50 is above 2000 nM.
Taken in the same sequence, the figures for `C[C@@H]1CN=C2c3ccccc3N=C(NC(=O)c3cccnc3)N21.Cl` [Example 2-366] were 270 °C (dec.) and above 2000 nM.
Take `COc1ccc2c(c1OC)N=C(NC(=O)c1cncc(O)c1)N1CCN=C21.Cl` [Example 2-368]: the melting point is 240 °C (dec.). For the same molecule, in data set [1] (setting [4]), the IC50 was below 100 nM.
`O/C(=C\c1nc2ccccc2c2nccn12)c1cccs1` [Example 3-1, (Z)-2-Imidazo[1,2-c]quinazolin-5-yl-1-(2-thienyl)ethenol] showed a melting point of 128 °C. Moreover, the IC50 in data set [1] (setting [3]) is above 2000 nM.
On the same counts, the results for `O=C(Nc1nc2ccccc2c2nccn12)c1cccnc1` [Example 4-1, N-Imidazo[1,2-c]quinazolin-5-ylnicotinamide] are 223 to 224 °C (dec.) and 500 to 2000 nM.
